A word on the IC50: it is the point on the concentration scale where inhibition reaches its midpoint. Higher therefore signals weaker potency in that assay.

Our source for the IC50 values is patent US20120094964A1, “SULFAMOYL BENZOIC ACID DERIVATIVES AS TRPM8 ANTAGONISTS” (priority 2009, published 2012).

This test concerns the target T1, human TRPM8 (Homo sapiens, UniProt Q7Z2W7).
T1 construct: expressed in transfected cells
Description: In Vitro human TRPM8 Functional Assay (intracellular Ca2+, Fluo4, FDSS, menthol activation). To be noted: HEK293 cells stably expressing human TRPM8; activation with L-(-)-Menthol; 11-point dose-response. The class given is cell-based. As to the method:
In Vitro human TRPM8 Functional Assay
The functional activity of compounds was determined by measuring changes in intracellular calcium concentration using a Ca^2+-sensitive fluorescent dye, Fluo4 (Molecular Probes). The changes in fluorescent signal were monitored by the cell imaging technology by Hamamatsu Photonics's Functional Drug Screening System (FDSS).
HEK293 cells stably expressing human TRPM8 were grown in T175 flasks, in a 5% CO2 humidified incubator to about 80% confluence. Media composition consisted of Dulbecco's Modified Eagle Medium (high glucose), 10% fetal calf serum (FCS), 100 units/ml Penicillin, 100 microg/ml Streptomycin and 600 microg/ml Geneticine.
1. Plate-out HEK293-TRPM8 cells (40 microL medium containing 30,000 cells per well) into poly-D-lysine coated 384-well plates (BD FALCON) at 24 hours prior to assay.
1. […] 2. […] 3. Place the plate at room temperature in dark for 1 hour. 4. […] 5. Add 20 microL of compound solutions into each well and leave the plate for 5 minutes under the dark at room temperature. 6. Measure activity by FDSS as follows: • Set the assay plate on the stacker of FDSS • Start the detection of fluorescence intensity • After 30 sec, add 20 microL of 90 microM L-(−)-Menthol
IC50 values for compounds of the present invention were determined from 11-point dose-response studies. Curves were generated using the average of duplicate wells for each data point. Finally, the IC50 values are calculated with the best-fit dose curve determined by XLfit (ID Business Solutions Ltd.).

T1 sequence (Q7Z2W7 whole entry): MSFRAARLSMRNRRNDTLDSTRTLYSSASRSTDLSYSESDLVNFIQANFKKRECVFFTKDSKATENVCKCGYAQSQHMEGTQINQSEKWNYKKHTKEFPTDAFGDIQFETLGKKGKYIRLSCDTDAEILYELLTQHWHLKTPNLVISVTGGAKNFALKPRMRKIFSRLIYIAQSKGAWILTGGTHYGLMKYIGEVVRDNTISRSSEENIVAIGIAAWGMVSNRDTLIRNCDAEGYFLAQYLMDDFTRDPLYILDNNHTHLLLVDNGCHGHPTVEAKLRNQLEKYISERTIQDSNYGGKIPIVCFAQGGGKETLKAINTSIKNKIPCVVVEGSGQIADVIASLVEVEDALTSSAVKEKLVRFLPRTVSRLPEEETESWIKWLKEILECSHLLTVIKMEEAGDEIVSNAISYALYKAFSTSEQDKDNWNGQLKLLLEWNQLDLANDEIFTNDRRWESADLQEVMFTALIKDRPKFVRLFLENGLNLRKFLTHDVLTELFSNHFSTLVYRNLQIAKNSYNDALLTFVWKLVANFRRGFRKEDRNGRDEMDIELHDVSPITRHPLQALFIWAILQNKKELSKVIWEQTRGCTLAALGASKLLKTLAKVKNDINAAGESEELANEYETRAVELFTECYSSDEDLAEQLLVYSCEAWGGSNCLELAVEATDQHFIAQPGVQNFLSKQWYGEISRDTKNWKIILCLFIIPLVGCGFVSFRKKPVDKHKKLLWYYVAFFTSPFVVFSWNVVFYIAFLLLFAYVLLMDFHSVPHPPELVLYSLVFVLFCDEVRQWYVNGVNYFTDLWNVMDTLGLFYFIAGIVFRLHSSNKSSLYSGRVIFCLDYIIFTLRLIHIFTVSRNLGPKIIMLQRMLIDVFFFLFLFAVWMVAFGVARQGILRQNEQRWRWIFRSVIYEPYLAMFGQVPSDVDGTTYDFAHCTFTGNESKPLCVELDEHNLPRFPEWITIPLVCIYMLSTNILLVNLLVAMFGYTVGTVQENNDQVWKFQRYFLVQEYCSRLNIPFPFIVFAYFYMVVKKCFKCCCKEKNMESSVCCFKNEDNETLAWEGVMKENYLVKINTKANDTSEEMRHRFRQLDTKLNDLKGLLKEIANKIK

`COc1ccc(-c2ccc(CN(c3ncc(C(F)(F)F)cc3Cl)S(=O)(=O)c3ccc(C(=O)O)cc3)cc2)cn1` [Example 162, 4-(N-(3-chloro-5-(trifluoromethyl)pyridin-2-yl)-N-(4-(6-methoxypyridin-3-yl)-benzyl)sulfamoyl)benzoic acid] yielded a concentration for half-maximal inhibition (IC50) of less than 1000 nM.

The compound `O=C(O)c1ccc(S(=O)(=O)N(Cc2ccccc2)c2cccc(C(F)(F)F)n2)cc1` [Example 22, 4-(N-Benzyl-N-(6-(trifluoromethyl)pyridin-2-yl)sulfamoyl)benzoic acid] yielded an IC50 of 1000 to 10000 nM.

On to `O=C(O)c1ccc(S(=O)(=O)N(Cc2csc(-c3ccccc3)n2)c2ncc(C(F)(F)F)cc2Cl)cc1` [Example 198, 4-(N-(3-Chloro-5-(trifluoromethyl)pyridin-2-yl)-N-((2-phenylthiazol-4-yl)methyl)sulfamoyl)benzoic acid], for which the half-maximal inhibitory concentration (IC50) is less than 1000 nM.

Compound `COc1ccc(N(C(C)c2ccccc2F)S(=O)(=O)c2ccc(F)cc2)cc1` (centres unmarked) [Example 88, 4-Fluoro-N-(1-(2-fluorophenyl)ethyl)-N-(4-methoxyphenyl)benzene-sulfonamide] had an IC50 of less than 1000 nM.

As to `O=C(O)c1ccc(S(=O)(=O)N(Cc2ccc(C3CC3)cc2)c2ncc(C(F)(F)F)cc2Cl)cc1` [Example 150, 4-(N-(3-Chloro-5-(trifluoromethyl)pyridin-2-yl)-N-(4-cyclopropylbenzyl)sulfamoyl)benzoic acid], the IC50 is less than 1000 nM.

Turning to `O=S(=O)(c1ccc(-c2nn[nH]n2)cc1)N(Cc1ccccc1)c1ncc(C(F)(F)F)cc1Cl` [Example 174, N-Benzyl-N-(3-chloro-5-(trifluoromethyl)pyridin-2-yl)-4-(2H-tetrazol-5-yl)benzenesulfonamide], the IC50 was less than 1000 nM.

Regarding `O=C(O)c1ccc(S(=O)(=O)N(Cc2ccc(Oc3ccccc3)cc2)c2ncc(C(F)(F)F)cc2Cl)cc1` [Example 169, 4-(N-(3-Chloro-5-(trifluoromethyl)pyridin-2-yl)-N-(4-phenoxybenzyl)sulfamoyl)benzoic acid], the IC50 is less than 1000 nM.

For `O=C(O)c1ccc(S(=O)(=O)N(Cc2ccc(F)cc2Cl)c2ncc(C(F)(F)F)cc2Cl)cc1` [Example 40, 4-(N-(2-Chloro-4-fluorobenzyl)-N-(3-chloro-5-(trifluoromethyl)pyridin-2-yl)sulfamoyl)benzoic acid], the 50% inhibitory concentration (IC50) was less than 1000 nM.

`Cc1ccc(CN(c2ncc(Cl)cc2Cl)S(=O)(=O)c2ccc(C(=O)O)cc2)cc1C(F)(F)F` [Example 68, 4-(N-(3,5-dichloropyridin-2-yl)-N-(4-methyl-3-(trifluoromethyl)benzyl)sulfamoyl)benzoic acid] displayed an IC50 of less than 1000 nM.

In turn, `O=C(O)c1ccc(S(=O)(=O)N(Cc2ccccc2)c2ncc(C(F)(F)F)cc2Cl)c(F)c1` [Example 190, 4-(N-Benzyl-N-(3-chloro-5-(trifluoromethyl)pyridin-2-yl)sulfamoyl)-3-fluorobenzoic acid] registered an IC50 of less than 1000 nM.

Compound `COc1ccccc1C(C)N(c1cccc(F)c1)S(=O)(=O)c1ccc(C)c(Cl)c1` (centres unmarked) [Example 105, 3-Chloro-N-(3-fluorophenyl)-N-(1-(2-methoxyphenyl)ethyl)-4-methylbenzene-sulfonamide] returned an IC50 of 1000 to 10000 nM.

Take `CN(C)S(=O)(=O)NCc1ccc(S(=O)(=O)N(Cc2ccccc2)c2ncc(C(F)(F)F)cc2Cl)cc1` [Example 178, N-Benzyl-N-(3-chloro-5-(trifluoromethyl)pyridin-2-yl)-4-(((N,N-dimethylsulfamoyl)amino)methyl)benzenesulfonamide]: the IC50 is less than 1000 nM.

In turn, `O=C(O)c1ccc(S(=O)(=O)N(Cc2c(F)cccc2F)c2ncc(C(F)(F)F)cc2Cl)cc1` [Example 44, 4-(N-(3-Chloro-5-(trifluoromethyl)pyridin-2-yl)-N-(2,6-difluorobenzyl)sulfamoyl)benzoic acid] displayed an IC50 of less than 1000 nM.

For `O=C(O)c1ccc(S(=O)(=O)N(Cc2ccc(-n3cccn3)cc2)c2ncc(C(F)(F)F)cc2Cl)cc1` [Example 170, 4-(N-(4-(1H-Pyrazol-1-yl)benzyl)-N-(3-chloro-5-(trifluoromethyl)pyridin-2-yl)sulfamoyl)benzoic acid], the IC50 was less than 1000 nM.

The compound `O=C(O)c1ccc(S(=O)(=O)N(Cc2ccc(F)cc2)c2ncc(Cl)cc2Cl)cc1` [Example 61, 4-(N-(3,5-Dichloropyridin-2-yl)-N-(4-fluorobenzyl)sulfamoyl)benzoic acid] showed a half-inhibitory concentration (IC50) of less than 1000 nM.

Turning to `COc1cccc(C(C)N(c2ccccc2)S(=O)(=O)c2cccc(F)c2)c1` (centres unmarked) [Example 138, 3-Fluoro-N-(1-(3-methoxy-phenyl)ethyl)-N-phenyl-benzenesulfonamide], the half-maximal inhibitory concentration (IC50) lay in the range of 1000 to 10000 nM.

Compound `O=C(O)c1ccc(S(=O)(=O)N(Cc2ccc(Cl)c(F)c2)c2ncc(C(F)(F)F)cc2Cl)cc1` [Example 65, 4-(N-(4-Chloro-3-fluorobenzyl)-N-(3-chloro-5-(trifluoromethyl)pyridin-2-yl)sulfamoyl)benzoic acid] showed an IC50 of less than 1000 nM.

`O=C(O)c1ccc(S(=O)(=O)N(Cc2ccc(OC(F)(F)F)cc2)c2ncc(Cl)cc2Cl)cc1` [Example 63, 4-(N-(3,5-Dichloropyridin-2-yl)-N-(4-(trifluoromethoxy)benzyl)sulfamoyl)benzoic acid] yielded an IC50 of less than 1000 nM.

Turning to `O=C(O)c1ccc(S(=O)(=O)N(Cc2ccccc2)c2ncccc2C(F)(F)F)cc1` [Example 2, 4-(N-Benzyl-N-(3-(trifluoromethyl)pyridin-2-yl)sulfamoyl)benzoic acid], the IC50 was 10000 to 30000 nM.

As to `O=C(O)Cc1ccc(S(=O)(=O)N(Cc2ccccc2)c2ncc(C(F)(F)F)cc2Cl)cc1` [Example 147, 2-(4-(N-Benzyl-N-(3-chloro-5-(trifluoromethyl)pyridin-2-yl)sulfamoyl)phenyl)acetic acid], the IC50 is less than 1000 nM.

`O=C(O)c1ccc(S(=O)(=O)N(c2ncc(C(F)(F)F)cc2Cl)C2(c3ccccc3)CC2)cc1` [Example 193, 4-(N-(3-Chloro-5-(trifluoromethyl)pyridin-2-yl)-N-(1-phenylcyclopropyl)sulfamoyl)benzoic acid] displayed an IC50 of less than 1000 nM.

With `O=C(O)c1ccc(S(=O)(=O)N(Cc2ccccc2)c2ncc(-c3ccco3)cc2Cl)cc1` [Example 183, 4-(N-Benzyl-N-(3-chloro-5-(furan-2-yl)pyridin-2-yl)sulfamoyl)benzoic acid], the IC50 was less than 1000 nM.

Compound `O=C(O)c1ccc(S(=O)(=O)N(Cc2ccc(OC(F)(F)F)cc2)c2ncc(C(F)(F)F)cc2Cl)cc1` [Example 15, 4-(N-(3-Chloro-5-(trifluoromethyl)pyridin-2-yl)-N-(4-(trifluoromethoxy)benzyl)sulfamoyl)benzoic acid] registered an IC50 of less than 1000 nM.

In turn, `O=C(O)c1ccc(S(=O)(=O)N(Cc2cc(F)ccc2F)c2ncc(C(F)(F)F)cc2Cl)cc1` [Example 46, 4-(N-(3-Chloro-5-(trifluoromethyl)pyridin-2-yl)-N-(2,5-difluorobenzyl)sulfamoyl)benzoic acid] gave a concentration for half-maximal inhibition (IC50) of less than 1000 nM.

On to `O=C(O)c1ccc(S(=O)(=O)N(CCC2CCCCC2)c2ncc(C(F)(F)F)cc2Cl)cc1` [Example 19, 4-(N-(3-Chloro-5-(trifluoromethyl)pyridin-2-yl)-N-(2-cyclohexylethyl)sulfamoyl)benzoic acid], for which the IC50 is less than 1000 nM.

As for `O=C(O)c1ccc(S(=O)(=O)N(Cc2ccccn2)c2ccc(C(F)(F)F)cc2Cl)cc1` [Example 82, 4-(N-(2-Chloro-4-(trifluoromethyl)phenyl)-N-(pyridin-2-ylmethyl)sulfamoyl)benzoic acid], the IC50 is 1000 to 10000 nM.
